Measured values published in patent publication US9730979B2, “Methods for decreasing set in inhibiting protein phosphatase 2A (PP2A) and/or increasing the activity of cyclin-dependent kinase 5 (CDK5) by an APOE peptide” (COGNOSCI, INC., priority 2006, dated 2017).

Assays:
tau = experiment: Okadaic acid induced phospho-tau (AT-8) in mouse cortex; type: in vivo, C57B1/6 mice
Experimental: C57B1/6 mice were injected intravenously with increasing concentrations of okadaic acid (OA) (calculated by administration of a sufficient quantity of OA to produce the indicated μM concentration in a blood volume of 2 mL). One hour after OA was administered, mice were euthanized by decapitation and the brain removed. The cortex was isolated, flash frozen with liquid nitrogen, ground to a fine powder and an extract made by homogenization of the powder in an extraction buffer containing protease and phosphatase inhibitors. Protein extracts were separated by SDS-PAGE, transferred to nitrocellulose membranes, and probed for phospho-tau using the AT-8 antibody that recognizes phosphorylation of Ser202 and Thr205 of tau. Phospho-tau signals were normalized to signals from GAPDH protein. […] To determine the effect of COG peptides on the phosphorylation status of the tau protein, 5 mg/kg of COG 1410 was administered to the mice by subcutaneous injection 15 minutes prior to OA administration. FIG. 11B depicts the results of this series of experiments.

PP2A = PP2A activity (rate of phosphate release) of PP2A immunoprecipitated from treated RAW cells; type: cell-based, mouse; conditions: 10 nM okadaic acid alone, 1 hour
Experimental: Mouse macrophagic RAW cells were incubated with either 100 ng/mL LPS, 1 μM COG 112 (COG 133 conjugated to antennapedia), LPS and COG 112, 10 nM okadaic acid (an inhibitor of PP2A), or okadaic acid and COG 112. After 1 hour, cells were lysed and PP2A was immunoprecipitated by adding an antibody targeted to the catalytic C-subunit of PP2A. Half of the immunoprecipitate was separated by SDS-PAGE, blotted on to nitrocellulose, and probed with an anti-PP2AC antibody. The remaining portion was assayed for activity by adding 125 μL assay cocktail containing a phospho-threonine substrate peptide to the immunoprecipitated enzyme. After incubating at 37° C. with shaking, a 25 μL aliquot was removed and added to an ammonium molybdate solution (Upstate) that chelates free phosphate and changes color upon chelate formation. Aliquots were removed at various time intervals and the amount of free phosphate released from the peptide was determined by comparison to a phosphate standard curve. The rate of phosphate release was determined by linear fit to the time course data and was normalized to the relative PP2A concentration. PP2A activity, measured by the rate of phosphate release, is increased in the presence of COG 112 (FIG. 8), as would be expected if SET inhibition of PP2A was eliminated by binding of COG112 to SET. […]

SET from human brain = molecular target: T1, SET from human brain (Homo sapiens, UniProt Q01105); experiment: Biotinylated COG 133 pull-down of SET from human brain extract, competition with excess peptide; type: binding
SET, sequence (Q9EQU5 37-289 limits assumed): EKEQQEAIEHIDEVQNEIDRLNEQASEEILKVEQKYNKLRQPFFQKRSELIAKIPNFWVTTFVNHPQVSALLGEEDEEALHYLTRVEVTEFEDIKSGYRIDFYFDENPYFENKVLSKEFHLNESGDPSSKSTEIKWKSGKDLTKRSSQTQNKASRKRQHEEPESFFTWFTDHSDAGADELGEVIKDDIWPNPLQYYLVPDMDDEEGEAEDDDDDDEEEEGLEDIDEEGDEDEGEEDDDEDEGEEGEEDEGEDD
T1 construct: pulls down SET from human brain extracts; from tissue; host or cells: human brain homogenate
T1 sequence (Q01105 whole entry): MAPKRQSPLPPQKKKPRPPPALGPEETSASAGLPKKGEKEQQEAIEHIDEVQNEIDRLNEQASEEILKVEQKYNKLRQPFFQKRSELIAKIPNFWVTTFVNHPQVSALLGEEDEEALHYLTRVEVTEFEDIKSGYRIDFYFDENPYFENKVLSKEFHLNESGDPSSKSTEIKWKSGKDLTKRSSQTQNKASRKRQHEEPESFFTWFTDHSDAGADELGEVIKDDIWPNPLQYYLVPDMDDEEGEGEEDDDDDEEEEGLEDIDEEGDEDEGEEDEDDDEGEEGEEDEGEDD
Experimental: Human brain was homogenized in PBS buffer with a protease cocktail tablet and centrifuged to remove cellular debris. 100 ng of biotinylated COG 133 (COG 133 peptide with biotin attached to the N-terminus) was added to 1 mg of clarified supernatant. After 4 hours of incubation at room temperature, 50 μL of a 50% slurry of streptavidin agarose beads were added. After an additional hour of incubation, the beads were pelleted by centrifugation. The beads were washed 3 times with PBS buffer containing 0.1% tween 20 detergent. 50 μL of a 2×SDS PAGE loading buffer (containing DTT) were added to the washed beads and the samples were boiled for 2 minutes. Polyacrylamide gels were loaded with either 40 μL of extract per lane or 10 μg of total brain extract protein (control lane) and run in SDS buffer. […] Membranes were then probed with an anti-SET antibody. Blots were developed with Enhanced Chemiluminescence substrates (GE healthcare) and visualized by exposure to film.
In a related experiment, derivatives of the COG 133 peptide were tested for SET binding. Human brain extracts were prepared as described above. A 10-fold excess of COG 1410 or COG 112 peptide was added to the brain extract and incubated for 10 minutes. Next, 100 ng of biotinylated COG 133 was added to the extract and incubated for four hours at room temperature. […]

SET bound to P35 [1] = molecular target: T2, SET bound to P35 (Homo sapiens, UniProt Q01105); experiment: Co-precipitation of SET with immunoprecipitated p35 from human brain lysate; type: binding; conditions: 50 μM peptide, SET normalized to P35
T2 construct: from tissue; host or cells: human brain lysate
T2 sequence (Q01105 2-290 limits assumed): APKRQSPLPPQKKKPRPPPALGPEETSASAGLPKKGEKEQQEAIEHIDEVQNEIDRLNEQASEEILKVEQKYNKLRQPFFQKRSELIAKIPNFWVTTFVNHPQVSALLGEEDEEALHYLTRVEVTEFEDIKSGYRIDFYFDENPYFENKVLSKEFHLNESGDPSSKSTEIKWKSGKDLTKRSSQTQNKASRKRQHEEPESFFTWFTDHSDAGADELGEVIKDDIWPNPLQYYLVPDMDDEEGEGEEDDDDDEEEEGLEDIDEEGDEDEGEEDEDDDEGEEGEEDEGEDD
Experimental: FIG. 13. Human brain lysate was incubated with 50 μM of each of the peptides indicated. P35 was subsequently immunoprecipitated from 1 mg of the peptide-treated lysate. Western blots were performed to measure co-precipitation of SET protein (left panel). […] Signals from SET were normalized to signals for P35 protein.
(§1) Cdk5 requires the activator protein p35 for kinase activity. Although cdk5 is ubiquitously expressed, p35 expression is restricted to neurons of the central nervous system, thus limiting cdk5 associated kinase activity to these neurons. Cleavage of p35 to p25 disregulates cdk5 kinase activity causing the kinase to become constitutively active. Constitutive kinase activity of cdk5/p25 has been implicated in the aberrant hyperphosphorylation of tau protein and subsequent neurodegeneration found in Alzheimer's disease and other tauopathies. […] Therefore, it may be possible to reduce cdk5 kinase activity by interfering with the interaction between SET and the cdk5/p35 complex. To test this possibility, the effects of COG peptides on the binding of SET to p35 were examined. Mouse brain lysates (FIG. 12) or human brain lysates (FIG. 13) were incubated with 50 μM of COG 056 (reverse sequence of COG133), COG 112, COG133, or COG 1410. Activator protein p35 was immunoprecipitated with an anti-p35 antibody and protein A agarose beads from 1 mg of the peptide-treated brain lysates. […]

SET bound to P35 [2] = molecular target: T3, SET bound to P35 (Mus musculus, UniProt Q9EQU5); experiment: Co-precipitation of SET with immunoprecipitated p35 from mouse brain lysate; type: binding; conditions: 50 μM peptide, SET normalized to P35
T3 construct: from tissue; host or cells: mouse brain lysate
T3 sequence (Q9EQU5 2-289 limits assumed): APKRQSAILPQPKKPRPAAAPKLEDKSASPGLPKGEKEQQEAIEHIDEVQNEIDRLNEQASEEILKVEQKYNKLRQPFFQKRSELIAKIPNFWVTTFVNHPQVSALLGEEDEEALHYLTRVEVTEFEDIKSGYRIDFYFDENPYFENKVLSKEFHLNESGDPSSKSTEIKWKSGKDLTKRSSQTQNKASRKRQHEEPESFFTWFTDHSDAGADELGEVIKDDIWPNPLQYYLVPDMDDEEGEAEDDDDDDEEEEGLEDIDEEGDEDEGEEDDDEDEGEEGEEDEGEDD
Experimental: FIG. 12. Mouse brain lysate was incubated with 50 μM of each of the peptides indicated. P35 was subsequently immunoprecipitated from 1 mg of the peptide-treated lysate. Western blots were performed to measure co-precipitation of SET protein (left panel). […] Signals from SET were normalized to signals for P35 protein. Results with COG 133 are not shown and were inconclusive possibly due to unequal protein loading.
as §1, with “1410.” for “1410. Activator protein p35 was immunoprecipitated with an anti-p35 antibody and protein A agarose beads from 1 mg of the peptide-treated brain lysates.”

[3] = relative to COG 133; cited from earlier work
human THP1 cells = experiment: LPS-induced TNFα production in human THP1 cells with and without siRNA to SET; type: cell-based; conditions: SET removed by siRNA-based silencing
Description: Consistent with the mechanism of SET as an inhibitor of Protein Phosphatase 2A (PP2A), a reduction of the LPS-induced TNF response as well as elimination of the effect of COG 133 was observed when SET was removed from the cells.

BV2 cells [4] = conditions: without siRNA; previously shown; cited from earlier work
p38 MAP kinase = experiment: LPS-induced phosphorylation of p38 MAP kinase in BV2 microglia, western blot; type: cell-based, mouse; conditions: LPS plus peptide, 30 minutes, normalized to GAPDH
Experimental: (§2) Mouse BV2 microglia were incubated with either a negative control, LPS, or LPS and COG 133 (SEQ ID NO: 1) peptide for 30 minutes. Cells were lysed and a clarified extract prepared by centrifugation. Polyacrylamide gels were loaded with 30 μg of extract per lane and run in SDS buffer. […] Membranes were then probed with phospho-specific p38 MAP kinase, MKK 3/6, JNK, ERK, and IκB antibodies. Membranes were developed with Enhanced Chemiluminescence substrates (GE healthcare) and visualized by exposure to film. Membranes were then stripped and reprobed for total p38, JNK, Erk or IκB using non phospho-specific antibodies as previously described. In some experiments, the membranes were probed for GAPDH protein. Densitometry analysis of the western blots was conducted and the signals from phosphorylated p38 MAP kinase were normalized to those from GAPDH. […] PP2A has been reported to bind and dephosphorylate p38 MAP kinase (Sundaresan & Farndale 2002 FEBS Letters 528, 139). Given that COG peptides can increase PP2A activity (Example 5), it is likely that the dephosphorylation of p38 MAP kinase occurs through the activation of PP2A by COG binding to SET.

IκB = experiment: LPS-induced phosphorylation of IκB in BV2 microglia, western blot; type: cell-based, mouse; conditions: LPS plus peptide, 30 minutes
Experimental: as §2

NFκB = experiment: Nuclear NFκB in LPS-stimulated colonic epithelial cells, gel shift with radiolabeled oligonucleotide; type: cell-based; conditions: nuclear extracts
Experimental: In the dephosphorylated state, IκB binds to the transcription factor NFκB and prevents it from translocating to the nucleus to activate transcription of pro-inflammatory cytokines. […] A radiolabeled oligonucleotide containing a NFκB binding site was added to the proteins from the nuclear extracts and the proteins were subsequently separated by non-denaturing polyacrylamide gel electrophoresis. The amount of NFκB present in the nuclear extracts was detected by autoradiography (FIG. 10D). Nuclear NFκB was reduced in the presence of COG 133 providing further evidence that this signal transduction cascade is suppressed in cells treated with ApoE peptides.

[5] = tested on: extracellular regulated kinase (ERK) 1/2; experiment: LPS-induced phosphorylation of ERK 1/2 in BV2 microglia, western blot; type: cell-based, mouse; conditions: LPS plus peptide, 30 minutes
Experimental: as §2

[6] = tested on: c-Jun N-terminal kinase (JNK); experiment: LPS-induced phosphorylation of JNK in BV2 microglia, western blot; type: cell-based, mouse; conditions: LPS plus peptide, 30 minutes
Experimental: as §2

BV2 cells [7] = experiment: LPS-induced nitric oxide production in BV2 cells with and without siRNA to SET; type: cell-based, mouse; conditions: BV2 cells transfected with siRNA to SET
Experimental: See PCT application PCT/US05/31431 which claims priority to U.S. Provisional Applications 60/606,506, filed Sep. 2, 2004, 60/608,148, filed Sep. 9, 2004, and 60/606,507, filed Sep. 2, 2004 which are herein incorporated by reference in their entireties. BV2 cells were transfected with siRNA to SET. BV2 cells transfected with the siRNA and BV2 cells not transfected with the siRNA were treated with COG 133, LPS, or LPS and COG 133 as described in the above-referenced patent applications. Untreated BV2 cells were used as a control. FIG. 3 is a graph of the results. Bars three and seven correspond to LPS without siRNA to SET and with siRNA to SET, respectively. […] Similarly, there is a reduction in nitric oxide in the group treated with LPS and COG 133 and transfected with siRNA to SET compared to the group treated with LPS and COG 133 and not transfected with siRNA (lanes 8 and 4, respectively).

C=C1[C@@H](O)[C@@H]2O[C@]3(CC[C@H](/C=C/[C@@H](C)[C@@H]4CC(C)=C[C@@]5(O[C@H](C[C@@](C)(O)C(=O)O)CC[C@H]5O)O4)O3)CC[C@H]2O[C@@H]1[C@@H](O)C[C@H](C)[C@H]1O[C@@]2(CCCCO2)CC[C@H]1C [okadaic acid, reference compound]
phospho-tau in the cortex (tau; okadaic acid intravenously, increasing concentrations, one hour, normalized to GAPDH): concentration-dependent increase | baseline PP2A activity (PP2A): decrease in baseline PP2A activity

Ac-AS-Aib-LRKL-Aib-KRLL-NH2 [COG 1410]
SET protein pulled down with biotinylated COG 133 (SET from human brain; 10-fold excess of competitor peptide, human brain extract): reduces the amount of SET protein pulled down | amount of SET bound to P35 (SET bound to P35 [1]): reduce the amount of SET bound to P35 | phosphorylated tau protein induced by OA (tau; mouse, in vivo): reduced the amount of phosphorylated tau protein | competition with biotinylated COG 133 for binding to SET (SET; BV2 cells, anti-SET western blot): competes with COG 133 in binding to SET | amount of SET bound to P35 (SET bound to P35 [2]): reduce the amount of SET bound to P35 | gain in therapeutic window as compared to COG 133 [3]: 4 fold

LRVRLASHLRKLRKRLL [COG 133]
effect in reducing LPS-induced TNFα production (human THP1 cells): eliminated | LPS-induced nitric oxide production (BV2 cells [4]): reduce LPS-induced nitric oxide production | phosphorylation of p38 MAP kinase (p38 MAP kinase): decrease in phosphorylation | LPS-induced phosphorylation of IκB (IκB): reduces the LPS-induced phosphorylation | amount of SET bound to P35 (SET bound to P35 [1]): reduce the amount of SET bound to P35 | nuclear NFκB (NFκB): reduced | LPS-induced phosphorylation of ERK [5]: reduces the LPS-induced phosphorylation | LPS-induced phosphorylation of JNK [6]: reduces the LPS-induced phosphorylation | nitric oxide, LPS+COG 133+siRNA versus LPS+siRNA (BV2 cells [7]): not a significant difference

biotinylated COG 133 [reference compound]
binding to SET (SET from human brain; 100 ng peptide in 1 mg human brain supernatant, streptavidin pull-down): binds to and pulls down SET | binding to SET (SET): uniquely bind
